From patent US20170233409A1, “TYPE IV SECRETION SYSTEM INHIBITORS” (priority 2016, published 2017)
Entries after “also recorded” stand apart in the source; their conditions may differ.

Tests used:
H. pylori cag T4SS = assay type: cell-based; settings: strain J166 pre-treated 30 min, 50 μM, 18 hours
[1] = system: IncF group R1-16 conjugative T4SS; experiment: DNA conjugation efficiency, R1-16; settings: 150 μM
Experimental: (§1) Analysis of DNA conjugation efficiency. Overnight cultures of donor E. coli MG1655 harboring pKM101, donor E. coli MS411 harboring R1-16, and recipient E. coli MG1655 (WM1652) were grown at 37° C. with shaking at 225 rpm in LB/antibiotic, were diluted in antibiotic-free LB containing DMSO or 150 μM compound, and incubated with shaking at 37° C. to reach an OD600 of ˜0.3. Donor and recipient cells were mixed at a ratio of 1:1 on 0.22 μM pore size mixed cellulose ester filters (Millipore) on antibiotic-free LB plates for 2 h at 37° C. Filters were aseptically removed from LB plates and incubated in 100 μl antibiotic-free LB to dislodge E. coli from membranes. Serial dilutions were plated on the appropriate antibiotic (or dual antibiotic) LB plates to determine the number of donor, recipient, and transconjugant cells. Colonies were enumerated after 24 h, and conjugation efficiencies were calculated by dividing the average number of transconjugates by the average number of donors (either pKM101 or R1-16 donor cells). Conjugation efficiency in the presence of compound is expressed as a percentage of conjugation efficiency in DMSO.

cag T4SS pili = experiment: Scanning electron microscopy of cag T4SS pili; assay type: cell-based, H. pylori; settings: 150 μM, SEM
Experimental: Scanning electron microscopy. Overnight cultures of H. pylori were diluted to OD600˜0.3 and incubated with shaking at 37° C., 5% CO2 for 1 h in the presence of vehicle or 150 μM compound and co-cultured with AGS cells on tissue culture-treated coverslips (BD Biosciences) at an MOI of 100 in the presence of 150 μM compound or vehicle. H. pylori-AGS cell co-cultures were processed and imaged.
Field emission gun scanning electron microscopy. Samples were fixed with 2.0% paraformaldehyde, 2.5% glutaraldehyde in 0.05 M sodium cacodylate buffer, and secondarily fixed with 0.1% osmium tetroxide. Sequential dehydration was performed by washing with increasing concentrations of ethanol. Samples were dried at the critical point with a Tousimis critical point dryer. Coverslips were mounted onto aluminum stubs and sputter coated with gold-palladium and imaged with an FEI Quanta 250 FEG-SEM.

[2] = system: IncN group conjugative T4SS encoded by pKM101; experiment: DNA conjugation efficiency, pKM101; settings: 150 μM, compared to vehicle controls
Experimental: as §1

TLR9 = molecular target: T1, TLR9 (Homo sapiens, UniProt Q9NR96); experiment: TLR9 activation by CpG ODN (control); assay type: cell-based; settings: 50 μM
T1 construct: host or cells: HEK293-TLR9 reporter cell line
T1 sequence (Q9NR96 26-1032): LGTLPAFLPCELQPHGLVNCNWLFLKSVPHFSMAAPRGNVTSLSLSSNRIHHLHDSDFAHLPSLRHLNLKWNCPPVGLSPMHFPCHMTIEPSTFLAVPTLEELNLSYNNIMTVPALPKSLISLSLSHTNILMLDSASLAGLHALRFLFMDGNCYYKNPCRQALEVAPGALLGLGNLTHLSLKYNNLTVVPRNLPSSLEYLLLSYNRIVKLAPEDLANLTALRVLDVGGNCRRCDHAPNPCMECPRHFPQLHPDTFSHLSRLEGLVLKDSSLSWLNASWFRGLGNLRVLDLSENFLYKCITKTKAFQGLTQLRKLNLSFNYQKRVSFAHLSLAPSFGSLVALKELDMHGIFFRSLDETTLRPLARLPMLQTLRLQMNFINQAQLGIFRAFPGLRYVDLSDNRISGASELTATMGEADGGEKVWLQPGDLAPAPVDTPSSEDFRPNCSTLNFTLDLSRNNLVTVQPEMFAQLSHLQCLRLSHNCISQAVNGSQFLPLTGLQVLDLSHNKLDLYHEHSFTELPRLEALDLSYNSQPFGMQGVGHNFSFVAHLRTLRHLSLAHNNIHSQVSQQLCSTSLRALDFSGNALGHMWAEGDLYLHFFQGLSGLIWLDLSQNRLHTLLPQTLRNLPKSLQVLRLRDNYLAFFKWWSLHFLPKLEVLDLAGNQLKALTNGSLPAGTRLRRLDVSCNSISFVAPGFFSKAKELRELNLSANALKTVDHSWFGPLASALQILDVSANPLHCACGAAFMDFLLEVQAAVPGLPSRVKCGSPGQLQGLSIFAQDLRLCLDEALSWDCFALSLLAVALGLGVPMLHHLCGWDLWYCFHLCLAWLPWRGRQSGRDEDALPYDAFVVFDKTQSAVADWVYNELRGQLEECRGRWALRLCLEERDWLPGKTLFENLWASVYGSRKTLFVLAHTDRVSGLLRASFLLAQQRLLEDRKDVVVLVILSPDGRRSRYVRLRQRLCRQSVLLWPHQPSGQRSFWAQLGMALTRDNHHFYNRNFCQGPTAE
Experimental: Inhibition of T4SS-dependent activation of human TLR9 signaling by H. pylori. H. pylori strain J166 was grown in broth culture overnight, and was subsequently pre-treated in the indicated compound at a final concentration of 50 μM, or in an equivalent volume of DMSO vehicle for 30 min prior to inoculating cultured HEK293-TLR9 reporter cell lines. Co-cultures were incubated in the presence of 50 μM compound or an equivalent volume of DMSO vehicle supplemented in the cell culture media for the duration of incubation (18 hours). TLR9 activation was assayed using a colorimetric assay (Invivogen), and TLR9 activation in the presence of type IV secretion system (T4SS) inhibitor compounds is expressed as a percentage of TLR9 activation by H. pylori in the presence of vehicle. As a control, TLR9 was activated with the immunostimulatory synthetic ligand CpG oligodeoxynucleotide (CpG ODN) in the presence of DMSO or inhibitor compound at 50 μM final concentration.

cag T4SS [3] = experiment: NF-κB luciferase reporter activation by H. pylori in AGS cells; assay type: cell-based
Experimental: Quantitation of NF-κB signaling activation. AGS cells stably transfected with an NF-κB-luciferase reporter (AGS NF-κB-luc) were cultured for 24 h and treated as described for the IL-8 induction studies. After 4 h co-culture with H. pylori, cell monolayers were washed with sterile PBS, and cell monolayer extracts were obtained by passive cell lysis. NF-κB-luciferase activity was measured by the Steady-Glo Luciferase Assay System (Promega) on a BioTek Synergy 4 plate reader, and plates were normalized to the DMSO vehicle control for each dilution series.

cag T4SS [4] = assay type: cell-based, H. pylori
H. pylori = H. pylori viability (cellular ATP, CellTiter-Glo); assay type: cell-based; settings: concentrations up to 150 μM
cag T4SS [5] = experiment: CagA translocation assay (tyrosine-phosphorylated CagA immunoblot); assay type: cell-based, H. pylori; settings: 150 μM; compared to vehicle-only and GKP42-treated controls

Question: With `COc1ccc(Cc2cc(=O)n3c(c2C2CC2)SC[C@H]3C(=O)O)c2ccccc12` [KSK85, (3R)-7-[(4-methoxynaphthalen-1-yl)methyl]-8-cyclopropyl-5-oxo-2,3-dihydro-5H-[1,3]thiazolo[3,2-a]pyridine-3-carboxylic acid] as the compound, how does the “T4SS-dependent activation of TLR9 by H. pylori” value (H. pylori cag T4SS) read?
Answer: inhibit

Question: What about the “DNA conjugation efficiency of the de-repressed R1-16 system” value [1] of the same compound?
Answer: did not

Question: And the “cag T4SS pilus formation at the bacteria-host cell interface” value (cag T4SS pili)?
Answer: abrogated pilus formation in the majority of H. pylori cells

Question: What about the “DNA conjugation efficiency of pKM101” value [2] of the same compound?
Answer: reduced

Question: And the “activation of TLR9 by CpG ODN” value (TLR9)?
Answer: not by CpG ODN

Question: And the “cag T4SS-dependent NF-κB activation” value (cag T4SS [3]; WT H. pylori, AGS NF-κB-luc cells)?
Answer: significantly reduced; also recorded: reduced compared to the inhibitory effects of C10

Question: What about the “cag T4SS-mediated NF-κB activation by H. pylori strains of different phylogeographic origins” value (cag T4SS [3]; multiple H. pylori strains) of the same compound?
Answer: inhibited

Question: And the “NF-κB activation by H. pylori ΔcagA mutant compared to WT strain” value (cag T4SS [3]; ΔcagA mutant)?
Answer: significantly enhanced

Question: And the “LogEC50, attenuation of cag T4SS-dependent IL-8 secretion” value (cag T4SS [4]; 4.5 h co-culture, normalized IL-8 secretion, non-linear regression)?
Answer: −1.14

Question: And the “cag T4SS-dependent IL-8 secretion” value (cag T4SS [4]; H. pylori-gastric epithelial cell co-culture, 25-150 μM)?
Answer: significantly reduced

Question: What about the EC50 (cag T4SS [4]; read-out: EC50, attenuation of cag T4SS-dependent IL-8 secretion, 4.5 h co-culture, normalized IL-8 secretion, non-linear regression) of the same compound?
Answer: 72.2 µM

Question: What about the “viability of bacterial cells” value (H. pylori) of the same compound?
Answer: did not impact viability

Question: And the “amount of tyrosine-phosphorylated CagA in cultured gastric epithelial cells” value (cag T4SS [5])?
Answer: significantly reduced
